± gives the expanded uncertainty stated by the source.
Assay: activity coefficient (dimensionless); of the first substance listed, at infinite dilution; xn = mol fraction of the nth substance listed
Conditions: 101 kPa, Liquid, Chromatography, x1 = 0

| SMILES | activity coefficient (318.15 K) | activity coefficient (328.15 K) | activity coefficient (338.15 K) | activity coefficient (348.15 K) | activity coefficient (358.15 K) | activity coefficient (368.15 K) |
| --- | --- | --- | --- | --- | --- | --- |
| C=Cc1ccccc1 [styrene] + COCC[N+]1(C)CCCC1.O=S(=O)([N-]S(=O)(=O)C(F)(F)F)C(F)(F)F | 1.29 ± 0.08 | 1.32 ± 0.09 | 1.33 ± 0.09 | 1.36 ± 0.09 | 1.37 ± 0.09 | 1.39 ± 0.09 |
| C1CCOC1 [tetrahydrofuran] + COCC[N+]1(C)CCCC1.O=S(=O)([N-]S(=O)(=O)C(F)(F)F)C(F)(F)F | 0.81 ± 0.05 | 0.83 ± 0.05 | 0.84 ± 0.05 | 0.86 ± 0.06 | 0.87 ± 0.06 | 0.88 ± 0.06 |
| c1ccsc1 [thiophene] + COCC[N+]1(C)CCCC1.O=S(=O)([N-]S(=O)(=O)C(F)(F)F)C(F)(F)F | 0.885 ± 0.056 | 0.897 ± 0.057 | 0.909 ± 0.058 | 0.918 ± 0.058 | 0.929 ± 0.059 | 0.938 ± 0.059 |
| Cc1ccccc1 [toluene] + COCC[N+]1(C)CCCC1.O=S(=O)([N-]S(=O)(=O)C(F)(F)F)C(F)(F)F | 1.48 ± 0.1 | 1.5 ± 0.1 | 1.51 ± 0.1 | 1.53 ± 0.1 | 1.55 ± 0.1 | 1.56 ± 0.1 |
| O [water] + COCC[N+]1(C)CCCC1.O=S(=O)([N-]S(=O)(=O)C(F)(F)F)C(F)(F)F | 3.15 ± 0.21 | 2.81 ± 0.19 | 2.51 ± 0.17 | 2.26 ± 0.15 | 2.05 ± 0.14 | 1.85 ± 0.12 |
